Laboratory results as given in patent US20230233515A1, “PHOTODYNAMIC ANTI-GRAM-POSITIVE BACTERIAL ACTIVITY OF PHARMACEUTICAL-GRADE ROSE BENGAL” (priority 2021, published 2023).
Values after ≈ are worked out from the molar mass of the structure shown. Values joined by “and” are separate entries in the source; they are usually repeats but may differ in a detail not shown here. Equal values may be shown once. Read-outs that look alike come from different tables or passages of the source.

Assays:
[1] = system: M.smegmatis 607™ (RB mutant); format: cell-based, Mycobacterium smegmatis; conditions: for MIC (µg/mL) against M.smegmatis 607™ (RB mutant): triplicate
[2] = system: M.smegmatis 607™ (wild-type); assay: MIC against M.smegmatis, dark; format: cell-based, Mycobacterium smegmatis; conditions: dark condition, triplicate
[3] = system: biofilms of S.aureus 6508; assay: Anti-biofilm assay; format: cell-based, Staphylococcus aureus; conditions: for viable bacteria in biofilm: dark condition
Protocol: We applied linezolid as a positive control at very high concentration of 600 µg/mL (>100xMIC for the planktonic cells) in our biofilm assays.
The biofilms were generated on 12-well plates by incubating each bacterium for five days. The planktonic bacteria in the culture media were gently removed, and fresh media were placed. […] An aliquot of each culture was diluted (x10,000 or x100,000) on agar plates at 37° C. for 24 h. CFU/mL was counted.

[4] = system: Gram-positive and -negative bacteria; assay: Time-kill kinetics, general statements
Protocol: (§6) Time-kill kinetics assay for antimicrobial agents was performed using CLSI guidelines with a minor modification. The multiple time points in time-kill kinetics assays for RB and the reference molecules were performed. The bacterial culture grown in the broth was diluted to a concentration between 1 × 10^8 and 5.0 × 10^9 CFU/mL.
A stock dilution of the antimicrobial test substance was prepared at approximately 2- to about 8-fold the MIC values. The test compounds were inoculated with equal volumes of the specified bacteria placed in a 96-well plate. The microtiter plates were incubated at 37° C. and duration (1-120 min) under the fluorescent light (conditions are summarized in the figure legend). An aliquot of the culture medium was taken from each well and a serial dilution was performed. The diluted culture was incubated at 37° C. and CFU/mL were counted. Bactericidal activity was defined as greater than 3 log-fold decrease in colony forming units [64].

[5] = system: a S.aureus strain; conditions: 19.5 µg/mL RB, 10 min visible light, light fluence dose 30 J/cm^2; cited from earlier work
[6] = system: three E.coli, two Pseudomonas aeruginosa, two Klebsiella pneumoniae, and two Acinetobacter baumannii strains; assay: MIC, broth dilution; conditions: entries 31-39
Protocol: (§7) We have reinvestigated the bactericidal activity of pharmaceutical-grade of RB against a battery of Gram-positive and -negative aerobic bacteria including Mycobacterium spp. and a Saccharomyces sp. under different light sources (fluorescence, LED, and sun light) and in a dark condition. Fluorescent light used was 17W (1,647 lumens, 63.8 cm^2) and LED was a 9.5 W (800 lumens, 28.3 cm^2), specifics about which are discussed hereinafter.
(§8) Minimum inhibitory concentrations (MICs) were determined by broth dilution microplate alamar blue assay or by OD measurement. All compounds were stored in DMSO or saline (1 mg/100 µL concentration). This concentration was used as the stock solution for all MIC studies. Each compound from stock solution was placed in the first well of a sterile 96 well plate and a serial dilution was conducted with the culturing broth (total volume of 10 µL). The bacterial suspension at log phase (190 µL) was added to each well (total volume of 200 µL), and was incubated for 24 h at 37° C.

[7] = system: biofilms of S.aureus 71080 (VRS8); assay: Anti-biofilm assay; format: cell-based, Staphylococcus aureus; conditions: fluorescent light
Protocol: Here, we examined efficacy of RB against biofilms of a drug-susceptible S.aureus 6508™, and drug-resistant S.aureus 71080 (VRS8) and E.faecium NR-32065 under the florescent light and dark conditions.
The biofilms were generated on 12-well plates by incubating each bacterium for five days. The planktonic bacteria in the culture media were gently removed, and fresh media were placed. […] An aliquot of each culture was diluted (x10,000 or x100,000) on agar plates at 37° C. for 24 h. CFU/mL was counted [47, 69].

[8] = system: air-exposed biofilms of S.aureus BAA-44™; assay: Air-exposed biofilms on agar plate; format: cell-based, Staphylococcus aureus; conditions: for CFU/mL (Dilution 5.8 × 10^11): treated at 0 and 30 min, 1 h, 17W fluorescent light, counted after 24 h at 37° C.
Protocol: The data of Table 3, below, summarize the effect of RB on air-exposed biofilms of a MRSA, Saureus BAA-44™, under fluorescent light (17 W, 1 h, 0.57 KJ/cm^2). Spraying RB (5.0 µg/mL or 10 µg/mL solution, 250 µL (twice)) and fluorescent light exposure (for 1 h) eradicated significant viable bacteria in the biofilms with a 4-log reduction (determined at a dilution of 5.8×10^9).
The bacteria (about 1.0x10^4) were spread on an agar plate and incubated in an oven at 37° C. for 2 days. The air-exposed biofilms on an agar plate were treated with PV-10. After 1 h under fluorescent light (0.57 KJ/cm^2), saline (2 mL) was added to the agar surface. The bacterial suspension ([…]) was taken into a sterile tube, and serial dilutions were performed. The diluted sample ([…]) was spread on agar plates and incubated at 37° C. for 24 h CFU/mL were counted.

[9] = system: Streptococcus salivarius; assay: MIC, broth dilution; conditions: entry 23
Protocol: as §7, §8

[10] = system: B.subtilis, B.cereus, and S.aureus; assay: MIC, agar dilution; format: cell-based; conditions: fluorescent light; entries 1-4 in Table 2; read-out: MIC (growth inhibition), agar dilution
Source text: (§1) All studies were done in triplicate. […] MBC: minimum bactericidal concentrations (µg/mL).
We observed that under the illumination conditions the MIC values of RB determined by the agar dilution method are lower than those determined by the broth dilution method (Table 1).

[11] = Behaviour in water at stomach pH; format: physicochemical; conditions: water solution having the acidic pH value of the human stomach
Source text: For example, the highly acidic gastric environment (pH 1.5-2 in the fasted state; pH 3-6 in the fed state) rises rapidly to about pH 6 in the duodenum and increases along the small intestine to pH 7.4 at the terminal ileum. The pH value in the cecum drops just below pH 6 and again rises in the colon reaching pH 6.7 at the rectum [Hua, Front Pharmacol 11: Article 524 (April 2020)].

[12] = at the therapeutic concentrations; cited from earlier work
[13] = system: Streptococcus pneumoniae; assay: MIC, broth dilution; conditions: entry 24
Protocol: as §7, §8

[14] = system: E.faecium NR-32065; assay: Time-kill kinetic assay; conditions: twice the RB MIC; fluorescent light
Protocol: (§9) Thus, the time-course experiments on these bacteria were conducted under the fluorescent light for 2 h (0-1,130 J/cm^2) at concentrations of about 2 to about 8-fold the MIC (RB). Reference molecules used were linezolid (10 µg/mL) and ciprofloxacin (10 µg/mL) for the Gram-positive bacteria and amikacin (10 µg/mL) and meropenem (10 µg/mL) for the Gram-negative bacterium.
as §6
(§10) A stock dilution of the antimicrobial test substance was prepared at approximately 2- to about 8-fold the MIC values. The test compounds were inoculated with equal volumes of the specified bacteria placed in a 96-well plate. The microtiter plates were incubated at 37° C. and duration (1-120 min) under the fluorescent light (conditions are summarized in the figure legend). An aliquot of the culture medium was taken from each well and a serial dilution was performed. The diluted culture was incubated at 37° C. and CFU/mL were counted.

[15] = system: B.cepacia UCB717; assay: Time-kill kinetic assay; conditions: fluorescent light
Protocol: as §9, §6, §10

[16] = system: S.aureus 71080 (VRS8); assay: Time-kill kinetic assay; conditions: twice the RB MIC; fluorescent light
Protocol: as §9, §6, §10

[17] = system: S.aureus BAA-44; assay: Time-kill kinetic assay; conditions: twice the RB MIC; fluorescent light
Protocol: as §9, §6, §10

[18] = system: Bacteroides fragilis; assay: MIC, broth dilution; conditions: anaerobic Gram-negative bacterium
Source text: We have reinvestigated the bactericidal activity of pharmaceutical-grade of RB against a battery of Gram-positive and -negative aerobic bacteria including Mycobacterium spp. and a Saccharomyces sp. under different light sources (fluorescence, LED, and sun light) and in a dark condition. Fluorescent light used was 17W (1,647 lumens, 63.8 cm^2) and LED was a 9.5 W (800 lumens, 28.3 cm^2), specifics about which are discussed hereinafter. In the studies under sunlight through an architectural window, the 96-well plates were placed on the east side of the building (the BSL-2 lab on the 5th floor, College of Pharmacy, University of Tennessee Health Science Center, Memphis, TN, USA) and the growth inhibition studies were performed between 8 AM and 5 PM (on June 18th, 2021).
Minimum inhibitory concentrations (MICs) were determined by broth dilution microplate alamar blue assay or by OD measurement. All compounds were stored in DMSO or saline (1 mg/100 µL concentration). This concentration was used as the stock solution for all MIC studies. Each compound from stock solution was placed in the first well of a sterile 96 well plate and a serial dilution was conducted with the culturing broth (total volume of 10 µL). […] The absorbance of each well was also measured at 570 and 600 nm via UV-Vis.

[19] = system: Burkholderia, Salmonella, and Proteus spp.; assay: MIC, broth dilution; conditions: fluorescent or LED lights
Protocol: as §7, §8

[20] = system: Gram-positive bacteria; assay: MIC, broth dilution; format: cell-based
Source text: (§2) All studies were done in triplicate. […] “g” = MIC was not determined.

[21] = system: Mycobacterium spp.; assay: MIC, broth dilution; format: cell-based
Source text: as §2

[22] = system: Gram-positive Bacillus spp.; assay: MIC, broth dilution; format: cell-based; conditions: illumination; entries 1-3 of Table 1
Source text: as §2

[23] = system: Staphylococcus aureus; assay: MIC, broth dilution; format: cell-based
Source text: as §2

[24] = system: Enterococcus faecalis; assay: MIC, broth dilution; format: cell-based; conditions: drug-susceptible and drug-resistant incl. vancomycin-resistant strains; entries 17-21
Source text: as §2

[25] = system: Gram-negative bacteria; assay: MIC, broth dilution; format: cell-based; conditions: dark condition; all Gram-negative bacteria of Table 1, entries 31-47
Source text: as §2

[26] = system: human epidermal keratinocytes (HEKa); assay: Cytotoxicity assay with HEKa cells (stratified epithelium, H&E); conditions: fluorescent light
Protocol: In these studies, HEKa cells were differentiated to a stratified squamous epithelium via air-liquid interface; this type of epithelium can be applied as a physiological tissue to study epidermal necrolysis by the treatment of RB.
Cytotoxicity of PV-10 against Human Epidermal Keratinocytes (HEKa) were evaluated in a hanging cell culture insert in a 24-well plate. HEKa (4x10^5 cells/mL, 0.5 mL) cell suspension) was placed into the insert where the outside of the inserts was filled with EpiGRO™ Complete Culture Media (1.5 mL) [67]. The cell suspension was incubated at 37° C. overnight (about 18 hours).
The next day, without removing the original medium, an additional 0.5 mL of the medium was added to the inside of each insert and incubated at 37° C. for 2 days. High quality HEKa approached 100% confluence by the third day of submerged culture. On the 4th day, the media was gently aspirated from each insert. The skin cell cultures were maintained at the air/liquid interface.
The skin culture was incubated at 37° C. for an additional 10 days. During the 10-day incubation, the media was changed every other day and any bubbles were removed from beneath the insert membrane.
After 25 days of 3D skin culture, approximately 6 to 8 layers of live epithelium were produced. […]

[27] = system: S.cerevisiae; assay: Growth inhibition of yeast; format: cell-based; conditions: Saccharomyces cerevisiae; fluorescent light; read-out: concentration giving 50% growth inhibition
Source text: as §2, §1

[28] = system: Staphylococcus epidermidis; assay: MIC, broth dilution; conditions: aerobic condition; entry 16
Protocol: as §7, §8

[29] = Cytotoxicity with Vero cells under fluorescent light (confluence); conditions: African green monkey, selectivity index (SI), cytotoxicity versus antibacterial activity, 1 h treatment time
Protocol: (§3) FIG. 5 is a graph showing the time in hours (h) for cell confluence at four concentrations of HB-RBf (zero µM, 100 µM, 200 µM and 300 µM) when irradiated under fluorescent light;
(§4) Cytotoxicity assays for RB in Vero cells were performed in a 24-well plate.
(§5) Images were collected by AMG EVOS xl transmitted light imaging microscope. […] (5% CO2).

[30] = system: Vero cells; assay: as above; conditions: fluorescent light; for confluence lost: 200 µM
Protocol: as §3, §4, §5

[31] = system: S.aureus 6538™; assay: Time-kill kinetic assay; conditions: in 1 minute; 4.6 × 10^8 CFU; fluorescent light
Protocol: as §9, §6, §10

[32] = system: S.cerevisiae; assay: Minimal bactericidal concentration (MBC) assay

CCc1cc(C(N)=S)ccn1 [Ethionamide, ethionamide]
susceptibility of the RB-resistant strain to the drug [1]: susceptible

NCC[C@H](O)C(=O)N[C@@H]1C[C@H](N)[C@@H](O[C@H]2O[C@H](CN)[C@@H](O)[C@H](O)[C@H]2O)[C@H](O)[C@H]1O[C@H]1O[C@H](CO)[C@@H](O)[C@H](N)[C@H]1O [Amikacin, amikacin]
susceptibility of the RB-resistant strain to the drug ([1]; dark condition): susceptible | MIC ([2]; Mycolicibacterium smegmatis): 0.78 µg/mL (≈ 1.33 µM)

NC[C@H]1O[C@@H](O[C@H]([C@H]2O[C@@H](n3ccc(=O)[nH]c3=O)[C@H](O)[C@@H]2O)[C@H](NCCCC(=O)NCc2ccc(N3CCC(Oc4ccc(OC(F)(F)F)cc4)CC3)cc2)C(N)=O)[C@H](O)[C@@H]1O [APPB, aminouridyl phenoxypiperidinylbenzyl butanamide]
susceptibility of the RB-resistant strain to the drug ([1]; dark condition): susceptible | MIC (µg/mL) against M.smegmatis 607™ (RB mutant) ([1]; dark condition): 0.20 µg/mL (≈ 0.227 µM) | MIC (µg/mL) against M.smegmatis 607™ (wild-type) [2]: 0.20 µg/mL (≈ 0.227 µM)

CC(=O)NC[C@H]1CN(c2ccc(N3CCOCC3)c(F)c2)C(=O)O1 [linezolid, reference compound]
biofilm eradication efficacy ([3]; linezolid at 600 µg/mL, compared with RB 30.0 µg/mL): same level of efficacy

O=C([O-])c1c(Cl)c(Cl)c(Cl)c(Cl)c1-c1c2cc(I)c(=O)c(I)c-2oc2c(I)c([O-])c(I)cc12.[Na+].[Na+] [RB, 4,5,6,7-tetrachloro-2′,4′,5′,7′-tetraiodo-fluorescein]
time to kill ([4]; Gram-negative bacteria): 5 min | time to kill ([4]; Gram-positive bacteria): 1 to 2 min | log reduction ([4]; within 2 hours of contact, preliminary studies): 6 log | loss of viability [5]: about 80% | MIC [6]: 50 µg/mL and > 100 µg/mL | biofilm, log reduction of viable bacteria ([7]; 10.0 µg/mL): over 6 log | CFU counted in biofilm ([7]; 30.0 µg/mL or higher): No CFU were counted | colonies counted (Dilution 5.8 × 10^11) ([8]; first column, PV-10 5.0 µg/mL): 0 (0 colony) | CFU/mL (Dilution 5.8 × 10^11) ([8]; first column, PV-10 5.0 µg/mL): 0 (0 colony) CFU/mL | colonies counted (Dilution 5.8 × 10^11) ([8]; first column, PV-10 10 µg/mL): 0 (0 colony) | CFU/mL (Dilution 5.8 × 10^11) ([8]; first column, PV-10 10 µg/mL): 0 (0 colony) CFU/mL | colonies counted (Dilution 5.8 × 10^11) ([8]; second column, PV-10 5.0 µg/mL): 35 colonies | CFU/mL (Dilution 5.8 × 10^11) ([8]; second column, PV-10 5.0 µg/mL): 9.4 × 10^10 CFU/mL | colonies counted (Dilution 5.8 × 10^11) ([8]; second column, PV-10 10 µg/mL): 17 colonies | CFU/mL (Dilution 5.8 × 10^11) ([8]; second column, PV-10 10 µg/mL): 4.5 × 10^10 CFU/mL | log reduction of viable bacteria in air-exposed biofilms ([8]; spray 5.0 or 10 µg/mL solution, 250 µL twice, fluorescent light 1 h, dilution of 5.8×10^9): 4 log | susceptibility to RB [9]: susceptible | viable bacteria in biofilm ([3]; 50.0 µg/mL (2xMIC under dark)): significantly reduced the number of viable bacteria | biofilm eradication, log reduction ([3]; 60.0 µg/mL (77×MIC), fluorescent light): > 5 log | CFU counted in biofilm ([3]; 100 µg/mL, fluorescent light): No CFU were counted | viable bacteria in biofilm ([3]; 1,000 µg/mL): No viable bacteria | MIC [10]: 0.01 to 0.1 µg/mL | appearance of solution at acidic pH [11]: rapid clouding of the admixture and clumping | toxicological effects [12]: does not have systemic toxicological effects, mutagenic potential, and female reproductive and development effects | susceptibility to RB [13]: showed resistance | time to kill [14]: ≤ 2 min | time required for a 5-log reduction ([15]; 2-times the MIC): 40 minutes | log reduction of the bacteria ([15]; 4-times the MIC, in 5 minutes, 2.9 × 10^8 CFU): > 5 log | time to kill [16]: ≤ 2 min | time to kill [17]: ≤ 2 min | concentration tolerated [18]: ≥ 100 µg/mL | MIC (killing concentration) [19]: 3.13 to 12.5 µg/mL | MIC ([20]; dark condition, all Gram-positive bacteria of entries 1-23): 25 to 100 µg/mL | MIC ([20]; under illumination conditions (fluorescent, LED), wide range of Gram-positive bacteria, entries 1-23 in Table 1): 0.2 to 3.1 µg/mL | killing concentration (MIC) ([21]; dark conditions): 25000 to 50000 µg/mL | MIC ([21]; illuminated conditions, 5 Mycobacterium spp., entries 25-29): 12.5 to 25 µg/mL | killing concentration (MIC) ([21]; illumination conditions): 12500 to 25000 µg/mL | MIC (killing concentration) [22]: 0.39 to 0.78 µg/mL | MIC (killing concentration) ([23]; 7 methicillin-resistant S.aureus (MRSA) strains, fluorescent or LED light): 0.78 to 3.1 µg/mL | concentration required to kill >99% of bacteria ([23]; MIC standard strain, illumination, entry 4): 1.6 µg/mL | MIC (killing concentration) ([23]; vancomycin-resistant S.aureus strains, either lighting condition): below 1.0 µg/mL | MIC (killing concentration) [24]: 0.39 to 0.78 µg/mL | MIC [25]: > 100 µg/mL | necrosis on the surface tissue ([26]; 200 µM, 1 h): Some necrosis | necrosis of the stratum corneum cells ([26]; 10 and 100 µM, 1 h exposure): did not cause necrosis | IC50 [27]: 1.6 µg/mL | bactericidal activity [28]: effectively killed | selectivity ratio at 1 h ([29]; for Gram-negatives): > 7.9 | selectivity ratio at 1 h ([29]; for Gram-positives): > 62.5 | confluency lost ([30]; 100 µM (97.4 µg/mL), 4 h): ~50% | state of the monolayer ([30]; 100 µM, 1 h exposure): intact | confluence lost ([30]; 1 h): About 18% | confluence lost ([30]; 4 h): over 80% | time to complete loss of the cell viability ([30]; 300 µM): ≤ 2 h | concentration tolerated by Vero cells ([30]; 1 h): 100 to 200 µM | log reduction of CFU [31]: 6 log | concentration not killing the yeast ([32]; dark condition): > 500 µg/mL | MBC (to kill >99% of the yeast) ([32]; fluorescent light): 400 µg/mL

NNC(=O)c1ccncc1 [Isoniazid, isoniazid]
susceptibility of the RB-resistant strain to the drug ([1]; dark condition): cross-resistance

capreomycin
susceptibility of the RB-resistant strain to the drug ([1]; dark condition): susceptible | MIC (µg/mL) against M.smegmatis 607™ (RB mutant) ([1]; dark condition): 3.13 µg/mL | MIC (µg/mL) against M.smegmatis 607™ (wild-type) [2]: 3.13 µg/mL
